# In ChEMBL document CHEMBL5050834, “Cyclic trex1 inhibitors” (2021):
# The source made the active and inactive calls. No cut-off for these calls is given here.
# System: not listed separately
# Assay: Inhibition of human TREX1 exonuclease activity using labeled DNA oligonucleotide as substrate incubated for 30 mins and measured after 45 mins by fluorescence assay
# Conditions: not given
row,Structure (SMILES),IC50
1,CCOC(=O)CC[C@H](C(=O)NCc1ccc(Cl)c(Cl)n1)N1CCC(CCc2ccccc2)N2C[C@H](N)C[C@H]2C1=O (stereo partly drawn),< 1000 nM
2,COC(=O)CC[C@H](C(=O)NCc1ccc(Cl)c(Cl)c1)N1CCC(COc2ccc(F)cc2)N2C[C@H](N)C[C@H]2C1=O (mixture of isomers),< 1000 nM
3,CCOC(=O)CC[C@H](C(=O)N1CCC[C@H]1c1ccc(Cl)c(Cl)c1)N1CCC(CCc2ccccc2)N2C[C@H](N)C[C@H]2C1=O (mixture of isomers),< 1000 nM
4,CC(C)C[C@H](CNC(=O)c1ccc(Cl)c(Cl)c1)N1CCC(CCc2ccccc2)N2C[C@H](N)C[C@H]2C1=O (stereo partly drawn),in the range around 1000 nM
5,N[C@@H]1C[C@H]2C(=O)N([C@H](CCC(=O)NO)C(=O)NCc3ccc(Cl)c(Cl)c3)CCC(COc3cccc(F)c3)N2C1 (stereo partly drawn),< 1000 nM
6,CC(C)C[C@H](C(=O)NCc1ccc(Cl)c(Cl)c1)N1CCC(C[S+]([O-])c2ccccc2)N2C[C@H](N)C[C@H]2C1=O (stereo partly drawn),< 1000 nM
7,N#CCC[C@H](C(=O)NCc1ccc(Cl)c(Cl)[n+]1[O-])N1CCC(CCc2ccccc2)N2C[C@H](N)C[C@H]2C1=O (stereo partly drawn),< 1000 nM
8,CCOC(=O)CC[C@H](C(=O)N1CCCC[C@H]1c1ccc(Cl)c(Cl)c1)N1CCC(CCc2ccccc2)N2C[C@H](N)C[C@H]2C1=O (stereo partly drawn),< 1000 nM
9,N[C@@H]1C[C@H]2C(=O)N([C@H](CCNS(=O)(=O)C(F)(F)F)C(=O)NCc3ccc(Cl)c(Cl)c3)CCC(CCc3ccccc3)N2C1 (stereo partly drawn),< 1000 nM
10,COc1cc(Cl)c(Cl)cc1CNC(=O)[C@@H](CCC(=O)O)N1CCC(CCc2ccccc2)N2C[C@H](N)C[C@H]2C1=O (stereo partly drawn),< 1000 nM
11,N[C@@H]1C[C@H]2C(=O)N([C@@H]3CCCN(Cc4ccc(Cl)c(Cl)c4)C3=O)CCC(CCc3ccccc3)N2C1 (stereo partly drawn),< 1000 nM
12,NC(=O)C[C@H](C(=O)NCc1ccc(Cl)c(Cl)c1)N1CCC(CCc2ccccc2)N2C[C@H](N)C[C@H]2C1=O (stereo partly drawn),< 1000 nM
13,N#CC[C@H](C(=O)N1CCc2c(ccc(Cl)c2Cl)C1)N1CCC(CCc2ccccc2)N2C[C@H](N)C[C@H]2C1=O (stereo partly drawn),in the range around 1000 nM
14,CCOc1c(CNC(=O)[C@@H](CCC(=O)O)N2CCC(CCc3ccccc3)N3C[C@H](N)C[C@H]3C2=O)ccc(Cl)c1Cl (stereo partly drawn),< 1000 nM
15,COC(=O)CC[C@H](C(=O)NCc1ccc(Cl)c(Cl)c1)N1CCC(CCc2ccccc2)N2C[C@H](N)C[C@H]2C1=O (stereo partly drawn),< 1000 nM
16,CC(C)C[C@H](C(=O)NCc1ccc(F)c(F)c1)N1CCC(CCc2ccccc2)N2C[C@H](N)C[C@H]2C1=O (stereo partly drawn),< 1000 nM
17,COc1c(CNC(=O)[C@@H](CCC#N)N2CCC(CCc3ccccc3)N3C[C@H](N)C[C@H]3C2=O)ccc(Cl)c1Cl (stereo partly drawn),< 1000 nM
18,N[C@@H]1C[C@H]2C(=O)N(c3cccn(Cc4ccc(Cl)c(Cl)c4)c3=O)CCC(CCc3ccccc3)N2C1 (stereo partly drawn),< 1000 nM
19,N[C@@H]1C[C@H]2C(=O)N([C@H](CCc3nnn[nH]3)C(=O)NCc3ccc(Cl)c(Cl)c3F)CCC(CCc3ccccc3)N2C1 (stereo partly drawn),< 1000 nM
20,N#CC[C@H](C(=O)N1CCOC[C@@H]1c1ccccc1)N1CCC(CCc2ccccc2)N2C[C@H](N)C[C@H]2C1=O (stereo partly drawn),in the range around 10000 nM
21,N[C@@H]1C[C@H]2C(=O)N([C@H]3CCCN(Cc4ccc(Cl)c(Cl)c4)C3=O)CCC(CCc3ccccc3)N2C1 (stereo partly drawn),< 1000 nM
22,CC(C)C[C@H](C(=O)NCc1ccc(Cl)c(C(F)(F)F)c1)N1CCC(CCc2ccccc2)N2C[C@H](N)C[C@H]2C1=O (stereo partly drawn),< 1000 nM
23,N#CCC[C@H](C(=O)NCc1ccc(Cl)c(Cl)c1)N1CCC(COc2cccc(F)c2)N2C[C@H](N)C[C@H]2C1=O (stereo partly drawn),< 1000 nM
24,N[C@@H]1C[C@H]2C(=O)N([C@H](CCC(=O)O)C(=O)N3CCC[C@H]3c3ccc(Cl)c(Cl)c3)CCC(CCc3ccccc3)N2C1 (stereo partly drawn),< 1000 nM
25,N[C@@H]1C[C@H]2C(=O)N([C@H](CCC(=O)NO)C(=O)NCc3ccc(Cl)c(Cl)c3)CCC(COc3ccc(F)cc3)N2C1 (stereo partly drawn),< 1000 nM
26,N[C@@H]1C[C@H]2C(=O)N([C@H](CCNS(=O)(=O)C3CC3)C(=O)NCc3ccc(Cl)c(Cl)c3)CCC(CCc3ccccc3)N2C1 (stereo partly drawn),< 1000 nM
27,COc1ccc(OCC2CCN([C@H](CCC(=O)O)C(=O)NCc3ccc(Cl)c(Cl)c3)C(=O)[C@@H]3C[C@@H](N)CN23)cc1 (stereo partly drawn),in the range around 1000 nM
28,Cc1ccc(OCC2CCN([C@H](CCC(=O)O)C(=O)NCc3ccc(Cl)c(Cl)c3)C(=O)[C@@H]3C[C@@H](N)CN23)cc1 (stereo partly drawn),in the range around 1000 nM

row,Structure (SMILES),IC50
1,CC(C)Oc1c(CNC(=O)[C@@H](CCc2nnn[nH]2)N2CCC(CCc3ccccc3)N3C[C@H](N)C[C@H]3C2=O)ccc(Cl)c1Cl (stereo partly drawn),< 1000 nM
2,N[C@@H]1C[C@H]2C(=O)N([C@H](CCNC(=O)C3CC3)C(=O)NCc3ccc(Cl)c(Cl)c3)CCC(CCc3ccccc3)N2C1 (stereo partly drawn),< 1000 nM
3,CC(=O)NCC[C@H](C(=O)NCc1ccc(Cl)c(Cl)c1)N1CCC(CCc2ccccc2)N2C[C@H](N)C[C@H]2C1=O (stereo partly drawn),< 1000 nM
4,N=C(N)NCCC[C@H](C(=O)NCc1ccc(Cl)c(Cl)c1)N1CCC(CCc2ccccc2)N2C[C@H](N)C[C@H]2C1=O (stereo partly drawn),< 1000 nM
5,CCOC(=O)CC[C@H](C(=O)NCc1cc(Cl)c(Cl)cn1)N1CCC(CCc2ccccc2)N2C[C@H](N)C[C@H]2C1=O (stereo partly drawn),< 1000 nM
6,COc1ccc(CNC(=O)[C@@H](CC(C)C)N2CCC(CCc3ccccc3)N3C[C@H](N)C[C@H]3C2=O)cc1 (stereo partly drawn),< 1000 nM
7,CCOC(=O)N[C@@H]1C[C@H]2C(=O)N([C@H](CCC(=O)O)C(=O)NCc3ccc(Cl)c(Cl)c3)CCC(CCc3ccccc3)N2C1 (stereo partly drawn),in the range around 10000 nM
8,N[C@@H]1C[C@H]2C(=O)N([C@H](CCC(=O)O)C(=O)NCc3ccc(Cl)c(Cl)c3)CCC(COc3ccc(F)cc3)N2C1 (stereo partly drawn),< 1000 nM
9,CCOC(=O)CC[C@H](C(=O)NCc1ccc(Cl)c(Cl)c1)N1CCC(CCc2ccccc2)N2C[C@H](NC(=O)OCC)C[C@H]2C1=O (stereo partly drawn),in the range around 10000 nM
10,N[C@@H]1C[C@H]2C(=O)N([C@H](CCC(=O)O)C(=O)NCc3cc(Cl)c(Cl)cn3)CCC(CCc3ccccc3)N2C1 (stereo partly drawn),< 1000 nM
11,CONC(=O)CC[C@H](C(=O)NCc1ccc(Cl)c(Cl)c1)N1CCC(CCc2ccccc2)N2C[C@H](N)C[C@H]2C1=O (stereo partly drawn),< 1000 nM
12,CCOC(=O)CC[C@H](C(=O)N1CCOC[C@H]1c1ccc(Cl)c(Cl)c1)N1CCC(CCc2ccccc2)N2C[C@H](N)C[C@H]2C1=O (stereo partly drawn),< 1000 nM
13,N[C@@H]1C[C@H]2C(=O)N([C@H](CCC(=O)O)C(=O)NCc3ccc(Cl)c(Cl)c3F)CCC(CCc3ccccc3)N2C1 (stereo partly drawn),< 1000 nM
14,N#CC[C@H](C(=O)NCc1ccc(Cl)cn1)N1CCC(CCc2ccccc2)N2C[C@H](N)C[C@H]2C1=O (stereo partly drawn),< 1000 nM
15,N[C@@H]1C[C@H]2C(=O)N([C@@H](CCC(=O)O)C(=O)NCc3ccc(Cl)c(Cl)c3)CCC(CCc3ccccc3)N2C1 (stereo partly drawn),< 1000 nM
16,N#CC[C@H](C(=O)NCc1ccc(Cl)c(C(F)(F)F)c1)N1CCC(CCc2ccccc2)N2C[C@H](N)C[C@H]2C1=O (stereo partly drawn),< 1000 nM
17,N[C@@H]1C[C@H]2C(=O)N([C@H](CS(=O)(=O)c3ccccc3O)C(=O)NCc3ccc(Cl)c(Cl)c3)CCC(CCc3ccccc3)N2C1 (stereo partly drawn),< 1000 nM
18,N#CC[C@H](C(=O)NCc1ccc(Cl)c(Cl)n1)N1CCC(CCc2ccccc2)N2C[C@H](N)C[C@H]2C1=O (stereo partly drawn),< 1000 nM
19,CC(C)C[C@H](C(=O)NCc1ccc(Cl)c(F)c1)N1CCC(CCc2ccccc2)N2C[C@H](N)C[C@H]2C1=O (stereo partly drawn),< 1000 nM
20,N#CC[C@H](C(=O)NCc1ccc(Cl)c(Cl)c1)N1CCC(CCc2ccccc2)N2C[C@H](N)C[C@H]2C1=O (stereo partly drawn),< 1000 nM
21,CCOC(=O)CC[C@H](C(=O)NCc1ccc(Cl)c(Cl)c1OC)N1CCC(CCc2ccccc2)N2C[C@H](N)C[C@H]2C1=O (stereo partly drawn),< 1000 nM
22,N[C@@H]1C[C@H]2C(=O)N([C@@H]3CCCN(C(=O)c4ccc(Cl)c(Cl)c4)C3)CCC(CCc3ccccc3)N2C1 (stereo partly drawn),in the range around 10000 nM
23,CC(C)C[C@H](C(=O)NCc1ccc(C(F)(F)F)c(F)c1)N1CCC(CCc2ccccc2)N2C[C@H](N)C[C@H]2C1=O (stereo partly drawn),< 1000 nM
24,N[C@@H]1C[C@H]2C(=O)N([C@H](CCC(=O)O)C(=O)NCc3ccc(Cl)c(C(F)(F)F)c3)CCC(CCc3ccccc3)N2C1 (stereo partly drawn),< 1000 nM
25,N[C@@H]1C[C@H]2C(=O)N([C@H](CCC(=O)O)C(=O)NCc3ccc(Cl)c(Cl)c3)CCC(COc3ccccc3F)N2C1 (stereo partly drawn),< 1000 nM
26,Cc1ccc(CNC(=O)[C@@H](CC(C)C)N2CCC(CCc3ccccc3)N3C[C@H](N)C[C@H]3C2=O)cc1Cl (stereo partly drawn),< 1000 nM
27,N[C@@H]1C[C@H]2C(=O)N([C@H](CCC(=O)O)C(=O)N3CCOC[C@H]3c3ccc(Cl)c(Cl)c3)CCC(CCc3ccccc3)N2C1 (stereo partly drawn),< 1000 nM

# System: not listed separately
# Assay: Inhibition of TREX1 in human THP1-Dual cells assessed as activation of cGAS-STING pathway measured by ISRE luciferase reporter gene assay
# Format: cell-based
# Conditions: not given
row,Structure (SMILES),EC50
1,N[C@@H]1C[C@H]2C(=O)N([C@H](CCc3nnn[nH]3)C(=O)NCc3ccc(Cl)c(Cl)c3F)CCC(CCc3ccccc3)N2C1 (stereo partly drawn),1000 nM
2,N[C@@H]1C[C@H]2C(=O)N([C@H](CCC(=O)O)C(=O)NCc3ccc(Cl)c(Cl)c3F)CCC(CCc3ccccc3)N2C1 (stereo partly drawn),1000 nM

# System: MB49
# Assay: Antitumor activity against mouse MB49 cells xenografted in female C57BL/6 mouse assessed as reduction in tumor volume at 100 ug, IT(Intratumoral) followed by 10 Gy gamma irradiation
# Format: functional, cell-based
# Conditions: dose 100.0 µg
row,Structure (SMILES),Activity
1,N[C@@H]1C[C@H]2C(=O)N([C@H](CCC(=O)O)C(=O)NCc3ccc(Cl)c(Cl)c3)CCC(CCc3ccccc3)N2C1 (stereo partly drawn),Active
